Measurements published in ChEMBL document CHEMBL5385872, “Design and syntheses of a bimolecular STING agonist based on the covalent STING antagonist” (Eur J Med Chem, 2023).
Activity calls are given as the source filed them.

Tests used:
[1] = target: Stimulator of interferon genes protein (Homo sapiens) (UniProt Q86WV6); assay: Induction of STING-dependent gene expression in human HT-1080 cells assessed as IFNbeta mRNA expression at 20 uM incubated for 8 hrs by qRT-PCR analysis; format: cell-based; conditions: filed as agonist
Sequence of Stimulator of interferon genes protein (Homo sapiens) (Q86WV6 whole entry): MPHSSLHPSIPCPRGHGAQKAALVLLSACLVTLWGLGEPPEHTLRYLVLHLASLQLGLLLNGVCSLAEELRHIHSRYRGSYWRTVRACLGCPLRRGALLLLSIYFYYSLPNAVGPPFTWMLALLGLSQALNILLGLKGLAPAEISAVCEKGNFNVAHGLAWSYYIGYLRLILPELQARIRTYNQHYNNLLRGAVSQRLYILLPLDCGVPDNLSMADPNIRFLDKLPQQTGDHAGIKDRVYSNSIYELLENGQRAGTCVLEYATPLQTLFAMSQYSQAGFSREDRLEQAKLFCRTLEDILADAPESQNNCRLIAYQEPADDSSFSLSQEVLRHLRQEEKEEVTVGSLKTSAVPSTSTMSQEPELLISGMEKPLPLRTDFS

[2] = target: T1, Stimulator of interferon genes protein (Mus musculus) (UniProt Q3TBT3); assay: Induction of STING-dependent gene expression in mouse BMDC cells assessed as IFNbeta mRNA expression at 20 uM incubated for 8 hrs by qRT-PCR analysis; format: cell-based; conditions: filed as agonist
T1 sequence (whole entry): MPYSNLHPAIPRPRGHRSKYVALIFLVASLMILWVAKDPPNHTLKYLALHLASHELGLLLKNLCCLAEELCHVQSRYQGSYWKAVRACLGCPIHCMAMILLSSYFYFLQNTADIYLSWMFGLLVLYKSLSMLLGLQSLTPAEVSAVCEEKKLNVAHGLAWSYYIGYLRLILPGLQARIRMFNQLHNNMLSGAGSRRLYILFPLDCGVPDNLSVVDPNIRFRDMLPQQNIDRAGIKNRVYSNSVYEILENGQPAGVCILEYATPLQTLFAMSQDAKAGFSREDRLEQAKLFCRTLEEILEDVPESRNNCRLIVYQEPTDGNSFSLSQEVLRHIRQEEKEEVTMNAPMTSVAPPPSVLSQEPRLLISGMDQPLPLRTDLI

[3] = target: Stimulator of interferon genes protein (Homo sapiens) (UniProt Q86WV6); assay: Induction of STING-dependent gene expression in human HT-1080 cells assessed as IFNalpha mRNA expression at 20 uM incubated for 8 hrs by qRT-PCR analysis; format: cell-based; conditions: filed as agonist
[4] = target: T1, Stimulator of interferon genes protein (Mus musculus); assay: Agonist activity at STING in mouse BMDC cells assessed as change in TBK1 phosphorylation (initially increase and then decreased) at 20 uM measured after 5 hrs by Western blot analysis; format: cell-based; conditions: filed as agonist
[5] = target: T1, Stimulator of interferon genes protein (Mus musculus); assay: Induction of STING dimerization in mouse BMDC cells assessed as dimerization (initially increase and then decreased) at 2.5 to 20 uM measured after 5 hrs by Western blot analysis; format: cell-based; conditions: filed as agonist, dose 2.5-20 µM
[6] = target: T1, Stimulator of interferon genes protein (Mus musculus); assay: Induction of STING dimerization in mouse BMDM cells assessed as dimerization (initially increase and then decreased) at 2.5 to 20 uM measured after 5 hrs by Western blot analysis; format: cell-based; conditions: filed as agonist, dose 2.5-20 µM
[7] = target: T1, Stimulator of interferon genes protein (Mus musculus); assay: Induction of STING-dependent gene expression in mouse BMDC cells assessed as IFNalpha mRNA expression at 20 uM incubated for 8 hrs by qRT-PCR analysis; format: cell-based; conditions: filed as agonist
[8] = target: T1, Stimulator of interferon genes protein (Mus musculus); assay: Agonist activity at STING in mouse BMDM cells assessed as change in TBK1 phosphorylation (initially increase and then decreased) at 20 uM measured after 5 hrs by Western blot analysis; format: cell-based; conditions: filed as agonist
[9] = target: Stimulator of interferon genes protein (Homo sapiens) (UniProt Q86WV6); assay: Induction of oligomerization of STING in HEK-293T cells stably expressing STING-Flag ( unknown origin) measured after 4 hrs by immunoprecipitation assay; format: cell-based; conditions: filed as agonist
Mus musculus [10] = assay: Induction of immune-activation effect in wild type female BALB/c mouse assessed as increase in serum IFNbeta level at 15 to 30 mg/kg, ip measured after 24 to 48 hrs by ELISA relative to control; format: functional, organism-based; conditions: dose 15-30 mg/kg, time 24-48 hrs
Mus musculus [11] = assay: Induction of immune-activation effect in wild type female BALB/c mouse assessed as increase in serum TNFalpha level at 15 to 30 mg/kg, ip measured after 24 to 48 hrs by ELISA relative to control; format: functional, organism-based; conditions: dose 15-30 mg/kg, time 24-48 hrs

Measured: Activity

O=C(NCCCCCCCCCNC(=O)c1ccc([N+](=O)[O-])o1)c1ccc([N+](=O)[O-])o1
not listed: Mus musculus [10] | Mus musculus [11]
active: all other assays above

O=C(NCCCCCCCCNC(=O)c1ccc([N+](=O)[O-])o1)c1ccc([N+](=O)[O-])o1
active: all assays above
